Experiment [1] deals with T1, Jarid1B (Homo sapiens, UniProt Q9UGL1).
T1 construct: purchased BPS Bioscience or custom made by MolecularThroughput 50121
T1 sequence (Q9UGL1 2-751): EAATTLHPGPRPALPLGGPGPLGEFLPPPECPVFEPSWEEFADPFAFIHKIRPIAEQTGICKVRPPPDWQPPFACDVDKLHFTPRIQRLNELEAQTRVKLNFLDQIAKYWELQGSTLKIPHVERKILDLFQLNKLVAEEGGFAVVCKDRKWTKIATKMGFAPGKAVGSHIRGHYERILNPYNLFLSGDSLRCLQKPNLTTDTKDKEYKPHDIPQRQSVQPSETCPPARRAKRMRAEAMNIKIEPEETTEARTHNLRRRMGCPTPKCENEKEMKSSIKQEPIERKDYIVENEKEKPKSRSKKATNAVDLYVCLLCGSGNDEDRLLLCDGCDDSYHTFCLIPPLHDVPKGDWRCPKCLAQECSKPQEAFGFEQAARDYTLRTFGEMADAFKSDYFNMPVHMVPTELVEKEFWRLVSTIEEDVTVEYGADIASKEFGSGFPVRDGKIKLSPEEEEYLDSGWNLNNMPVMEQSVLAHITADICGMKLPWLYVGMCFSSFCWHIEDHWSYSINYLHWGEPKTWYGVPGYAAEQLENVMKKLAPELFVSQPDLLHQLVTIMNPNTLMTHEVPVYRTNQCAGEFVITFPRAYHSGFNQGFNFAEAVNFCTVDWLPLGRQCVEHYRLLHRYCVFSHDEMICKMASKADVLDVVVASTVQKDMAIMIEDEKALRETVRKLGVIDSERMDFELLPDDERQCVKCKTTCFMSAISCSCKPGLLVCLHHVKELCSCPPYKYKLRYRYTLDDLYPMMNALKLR
Kind of experiment: Jarid1B in vitro enzyme inhibition assay (TR-FRET). The experiment is classed as biochemical. Put shortly:
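Jarid1B (AA 2-751, baculovirus-expressed) at 0.8 nM with 300 nM biotin-H3K4me3 peptide and 2 μM α-ketoglutarate in HEPES pH 7.3 with ascorbate and Fe(II), 30 min at room temperature. Stopped with EDTA; H3K4me1-2 product detected by TR-FRET (665/615 ratio) and IC50 fitted from 11-point dilutions.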
A general note: Time-resolved FRET reads energy transfer from a long-lived donor to a nearby acceptor.

In experiment [2] the target is T2, JMJD2C (Homo sapiens, UniProt Q9H3R0).
T2 construct: purchased BPS Bioscience 50105
T2 sequence (Q9H3R0 2-372): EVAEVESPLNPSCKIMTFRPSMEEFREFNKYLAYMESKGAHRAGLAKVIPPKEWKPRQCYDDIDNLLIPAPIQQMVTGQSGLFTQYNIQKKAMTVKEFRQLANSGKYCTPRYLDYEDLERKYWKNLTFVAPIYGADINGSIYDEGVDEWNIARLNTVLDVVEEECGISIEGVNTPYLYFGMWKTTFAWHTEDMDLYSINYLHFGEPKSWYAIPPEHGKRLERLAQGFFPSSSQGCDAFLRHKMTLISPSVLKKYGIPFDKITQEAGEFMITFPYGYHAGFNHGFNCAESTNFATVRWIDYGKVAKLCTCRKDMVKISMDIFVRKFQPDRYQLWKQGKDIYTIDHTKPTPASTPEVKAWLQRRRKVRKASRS
Kind of experiment: JMJD2C in vitro enzyme inhibition assay (TR-FRET). The experiment is classed as biochemical. A digest of the protocol: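 Baculovirus-expressed human JMJD2C (AA 2-372) at 0.3 nM demethylated 300 nM biotin-H3K9me3 peptide with 2 μM alpha-ketoglutarate in HEPES pH 7.3 containing ascorbate and Fe(II), 30 min at room temperature. EDTA-stopped product was read by TR-FRET with Eu-anti-H3K9me2 and streptavidin-APC; 665/615 ratios from 11-point dilutions gave IC50.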

Experimental findings from patent publication US10526327B2, “Histone demethylase inhibitors” (CELGENE QUANTICEL RESEARCH, INC., priority 2013, dated 2020) are described below.

A word on the IC50: it is the midpoint of a concentration-inhibition curve. High values mean weaker potency, low ones greater potency.

As to `CC(C)Oc1nc(O)c2ccncc2n1` [Example 1, 2-propan-2-yloxy-3H-pyrido[3,4-d]pyrimidin-4-one], the IC50 in experiment [1] and in experiment [2] was 0.1 to 1 µM throughout.

In the case of `CCOc1nc(O)c2ccncc2n1` [Example 2, 2-ethoxypyrido[3,4-d]pyrimidin-4-ol], the half-inhibitory concentration (IC50) is at most 0.1 µM in experiment [1] and 0.1 to 1 µM in experiment [2].

In the case of `Oc1nc(OCCOCC(F)(F)F)nc2cnccc12` [Example 23, 2-[2-(2,2,2-trifluoroethoxy)ethoxy]pyrido[3,4-d]pyrimidin-4-ol], the IC50 in experiment [1] and in experiment [2] was 0.1 to 1 µM each time.

For `CC(C)(O)CCOc1nc(O)c2ccncc2n1` [Example 24, 2-(3-hydroxy-3-methylbutoxy)pyrido[3,4-d]pyrimidin-4-ol], the IC50 in experiment [1] is at most 0.1 µM; in experiment [2], 0.1 to 1 µM.

As for `CC(CO)COc1nc(O)c2ccncc2n1` (stereo not shown) [Example 25, 2-(3-hydroxy-2-methylpropoxy)pyrido[3,4-d]pyrimidin-4-ol], the IC50 in experiment [1] and in experiment [2] was 0.1 to 1 µM in each case.

`Oc1nc(OCC2CCCO2)nc2cnccc12` (stereo not shown) [Example 26, 2-(oxolan-2-ylmethoxy)pyrido[3,4-d]pyrimidin-4-ol]: the results for the IC50 in experiment [1] and in experiment [2] were 1 to 10 µM and 0.1 to 1 µM, respectively.

Take `Oc1nc(OCC2CCOC2)nc2cnccc12` (stereo not shown) [Example 27, 2-(oxolan-3-ylmethoxy)pyrido[3,4-d]pyrimidin-4-ol]: the IC50 in experiment [1] and in experiment [2] was 0.1 to 1 µM throughout.

As to `CC(=O)N(C)CCOc1nc(O)c2ccncc2n1` [Example 28, N-[2-(4-hydroxypyrido[3,4-d]pyrimidin-2-yl)oxyethyl]-N-methylacetamide], the IC50 in experiment [1] and in experiment [2] was 0.1 to 1 µM in each case.

In the case of `CC(C)OCCOc1nc(O)c2ccncc2n1` [Example 29, 2-(2-propan-2-yloxyethoxy)pyrido[3,4-d]pyrimidin-4-ol], the IC50 in experiment [1] and in experiment [2] was 0.1 to 1 µM throughout.

Turning to `Oc1nc(OCCOCc2ccccc2)nc2cnccc12` [Example 30, 2-(2-phenylmethoxyethoxy)pyrido[3,4-d]pyrimidin-4-ol], the IC50 in experiment [1] and in experiment [2] was 0.1 to 1 µM in each case.

Take `O=C(NCCOc1nc(O)c2ccncc2n1)c1ccccc1` [Example 31, N-[2-(4-hydroxypyrido[3,4-d]pyrimidin-2-yl)oxyethyl]benzamide]: the IC50 is at most 0.1 µM in experiment [1] and 0.1 to 1 µM in experiment [2].

In the case of `N#Cc1cccc(COc2nc(O)c3ccncc3n2)c1` [Example 32, 3-[(4-hydroxypyrido[3,4-d]pyrimidin-2-yl)oxymethyl]benzonitrile], the IC50 in experiment [1] and in experiment [2] was 0.1 to 1 µM each time.

Consider `Cn1ccc(COc2nc(O)c3ccncc3n2)n1` [Example 33, 2-[(1-methylpyrazol-3-yl)methoxy]pyrido[3,4-d]pyrimidin-4-ol], for which the IC50 in experiment [1] is 1 to 10 µM; in experiment [2] it was at most 0.1 µM.

Turning to `Oc1nc(Oc2ccccc2)nc2cnccc12` [Example 34, 2-phenoxypyrido[3,4-d]pyrimidin-4-ol], the results for the IC50 in experiment [1] and in experiment [2] were at most 0.1 µM and 0.1 to 1 µM, respectively.

As for `Oc1nc(OCc2ccccc2C(F)(F)F)nc2cnccc12` [Example 177, 2-{[2-(trifluoromethyl)phenyl]methoxy}pyrido[3,4-d]pyrimidin-4-ol], the 50% inhibitory concentration (IC50) is 1 to 10 µM in experiment [1] and at most 0.1 µM in experiment [2].

`Oc1nc(OCc2ccccc2F)nc2cnccc12` [Example 178, 2-[(2-fluorophenyl)methoxy]pyrido[3,4-d]pyrimidin-4-ol]: the IC50 in experiment [1] is 1 to 10 µM; in experiment [2] it was at most 0.1 µM.

For `Oc1nc(OCc2cccc(F)c2)nc2cnccc12` [Example 179, 2-[(3-fluorophenyl)methoxy]pyrido[3,4-d]pyrimidin-4-ol], the concentration for half-maximal inhibition (IC50) in experiment [1] was 1 to 10 µM; in experiment [2], at most 0.1 µM.

On to `Oc1nc(OCc2ccc(F)cc2)nc2cnccc12` [Example 180, 2-[(4-fluorophenyl)methoxy]pyrido[3,4-d]pyrimidin-4-ol], for which the results for the IC50 in experiment [1] and in experiment [2] were 1 to 10 µM and at most 0.1 µM, respectively.

Consider `Oc1nc(OCc2cccc(F)c2F)nc2cnccc12` [Example 181, 2-[(2,3-difluorophenyl)methoxy]pyrido[3,4-d]pyrimidin-4-ol], for which the IC50 in experiment [1] is 1 to 10 µM; in experiment [2] it was at most 0.1 µM.

As to `Oc1nc(OCc2cc(F)ccc2F)nc2cnccc12` [Example 182, 2-[(2,5-difluorophenyl)methoxy]pyrido[3,4-d]pyrimidin-4-ol], the IC50 in experiment [1] is 1 to 10 µM; in experiment [2] it was at most 0.1 µM.

Turning to `Oc1nc(OCc2c(F)cccc2F)nc2cnccc12` [Example 183, 2-[(2,6-difluorophenyl)methoxy]pyrido[3,4-d]pyrimidin-4-ol], the IC50 fell in the range of 1 to 10 µM in experiment [1] and 0.1 to 1 µM in experiment [2].

For `Oc1nc(OCc2cccc3ccccc23)nc2cnccc12` [Example 184, 2-(naphthalen-1-ylmethoxy)pyrido[3,4-d]pyrimidin-4-ol], the results for the IC50 in experiment [1] and in experiment [2] were 1 to 10 µM and 0.1 to 1 µM, respectively.

Regarding `Oc1nc(OCc2ccccc2-c2ccccc2)nc2cnccc12` [Example 185, 2-[(2-phenylphenyl)methoxy]pyrido[3,4-d]pyrimidin-4-ol], the IC50 in experiment [1] was 1 to 10 µM; in experiment [2], 0.1 to 1 µM.

As for `Oc1nc(OCc2cccc(-c3ccccc3)c2)nc2cnccc12` [Example 186, 2-[(3-phenylphenyl)methoxy]pyrido[3,4-d]pyrimidin-4-ol], the IC50 lay within 1 to 10 µM in experiment [1] and 0.1 to 1 µM in experiment [2].

For the compound `Oc1nc(OCc2ccc3ccccc3c2)nc2cnccc12` [Example 187, 2-(naphthalen-2-ylmethoxy)pyrido[3,4-d]pyrimidin-4-ol], the half-inhibitory concentration (IC50) in experiment [1] and in experiment [2] was 1 to 10 µM in each case.

For `Oc1nc(OCC2CCCc3ccccc32)nc2cnccc12` (stereo not shown) [Example 188, 2-(1,2,3,4-tetrahydronaphthalen-1-ylmethoxy)pyrido[3,4-d]pyrimidin-4-ol], the values for the IC50 in experiment [1] and in experiment [2] were 0.1 to 1 µM and at most 0.1 µM, respectively.

For the compound `Oc1nc(OC2Cc3ccccc3C2)nc2cnccc12` [Example 189, 2-(2,3-dihydro-1H-inden-2-yloxy)pyrido[3,4-d]pyrimidin-4-ol], the IC50 is 0.1 to 1 µM in experiment [1] and at most 0.1 µM in experiment [2].

As for `Oc1nc(OCC2CCc3ccccc32)nc2cnccc12` (stereo not shown) [Example 190, 2-(2,3-dihydro-1H-inden-1-ylmethoxy)pyrido[3,4-d]pyrimidin-4-ol], the IC50 in experiment [1] is 0.1 to 1 µM; in experiment [2], at most 0.1 µM.

Regarding `Oc1nc(OCC2CCc3ccccc3C2)nc2cnccc12` (stereo not shown) [Example 191, 2-(1,2,3,4-tetrahydronaphthalen-2-ylmethoxy)pyrido[3,4-d]pyrimidin-4-ol], the IC50 in experiment [1] was 0.1 to 1 µM; in experiment [2], at most 0.1 µM.

For the compound `Oc1nc(OC2CCc3ccccc32)nc2cnccc12` (stereo not shown) [Example 192, 2-(2,3-dihydro-1H-inden-1-yloxy)pyrido[3,4-d]pyrimidin-4-ol], the IC50 in experiment [1] and in experiment [2] was 1 to 10 µM in each case.

As to `Oc1nc(OCc2coc3ccccc23)nc2cnccc12` [Example 193, 2-(1-benzofuran-3-ylmethoxy)pyrido[3,4-d]pyrimidin-4-ol], the IC50 in experiment [1] was 0.1 to 1 µM; in experiment [2], at most 0.1 µM.

For the compound `Oc1nc(OCC2COc3ccccc32)nc2cnccc12` (stereo not shown) [Example 194, 2-(2,3-dihydro-1-benzofuran-3-ylmethoxy)pyrido[3,4-d]pyrimidin-4-ol], the IC50 in experiment [1] and in experiment [2] was 1 to 10 µM throughout.
